≈ marks a conversion by molar mass, not a printed value. Read-outs that look alike come from different tables or passages of the source.
How the values were obtained:
[1] = Solubility in water; assay type: physicochemical; settings: in words
[2] = molecular target: T1, reverse transcriptase of HIV (HIV-1 M:B_HXB2R, UniProt P04585); experiment: Activity inhibitory to reverse transcriptase of HIV; assay type: biochemical; settings: 100 μg/ml
T1 construct: preparation not described
Text: Thus, it is apparent that D-β-lysylmethanediamine can inhibit strongly the infection of human T-cells with HIV by any mechanism yet unknown.

[3] = system: MT-4 cells; experiment: Cytotoxicity to MT-4 cells in the absence of HIV; assay type: cell-based, human; settings: even at a concentration of 100 μg/ml
Experimental: Furthermore, cytotoxicity of D-β-lysylmethanediamine to the MT-4 cells was estimated. This was done by incubating the MT-4 cells at varying concentrations of D-β-lysylmethanediamine added and in the absence of HIV but in the same manner of incubation and under the same conditions of incubation of MT-4 cells as those employed in the above-mentioned test procedures of assaying the activity of D-β-lysylmethanediamine to inhibit the infection of T-cells with HIV. That the cytotoxicity was not observed is represented by the symbol "-" in Table 1 below.

[4] = system: HIV (HTLV-IIIB strain) in MT-4 cells (human T-cell line); experiment: Inhibition of infection of human T-cells (MT-4) with HIV, HIV antigen-positive cells by indirect immunofluorescence; assay type: cell-based; settings: for EC50: MT-4 cells, read-out: 50% Effective concentration (ED50) against HIV
Experimental: Effects of D-β-lysylmethanediamine inhibitory to infection of human T-cells with HIV were examined in a similar manner to the assay methods described in the "Proc. Natl. Acad, Sci. USA," 80, 6061-6065 (1983); "J. Antibiot.", 40, 1077-1078, (1987); "J. Antibiot.", 42, 344-346 (1989) and "J. Antibiot." 44, 1228-1236 (1991).
1×10^5 Cells/ml of MT-4 cells (human T-cell line) in phosphate buffered saline were seeded into Costar 48-well plates in an amount of 0.5 ml/well. Each well was added with 0.05 ml of a solution of the test compound, namely D-β-lysylmethanediamine (dissolved at different concentrations of 3, 10, 30 and 100 μg per ml in phosphate buffered saline). After incubation for 2 hours at 37° C. under 5% CO2, the MT-4 cells were infected with 0.05 ml of HIV (HTLV-IIIB strain) as added in an amount of multiplicity of infection (m.o.i) of 0.025 to 0.05 in each well. The plates were incubated for 4 days at 37° C. under 5% CO2 so that the T-cells were treated in the presence of the test compound at the different concentrations.
Portions of the incubated cultures were taken and the MT-4 cells were smeared onto slide glasses, dried and fixed with acetone. The presence of the HIV antigen-positive MT-4 cells was detected by the indirect immunofluoroescent assay [Y. Hinuma et al., "Proc. Natl. Acad. Sci. USA," 78, 6476-6480, (1981) and Y. Takeuchi et al., "Gann.", 78, 11-15 (1987)]. To this end, the cell smears, that is, the acetone-fixed cell smears were treated at 37° C. for 30 minutes with such serum of AIDS patient at a dilution of 1:10 in phosphate buffered saline, which was employed as the first antibody. After washing subsequently with phosphate buffered saline, the MT-4 cells were treated at 37° C. for 30 minutes with fluorescent isothiocyanate-conjugated rabbit anti-human IgG serum (Cappel Laboratories, Cocharanville, Pa., USA), which was employed as the second antibody. After the cell smears were then washed with phosphate buffered saline and covered with a cover glass, the MT-4 cells were examined under a fluorescence microscope. Percentages of the number of the viral antigen-positive MT-4 cells (namely, immunofluorescent cells where the HIV-associated antigens were present and expressed) in total cells were calculated.
For the control tests of estimating the number of the total cells under test, the above test procedures were repeated without addition of D-β-lysylmethanediamine.
In order to evaluate the activity of D-β-lysylmethanediamine to inhibit the infection of human T-cells, namely the MT-4 cells with HIV, calculation was made of the percentages (T/C, %) of the number (T) of the HIV antigen-positive cells as measured in the above-mentioned tests where the incubation of MT-4 cells was effected in the presence of the test compound, against the number (C) of the HIV antigen-positive cells as measured in the above-mentioned control tests where the incubation of MT-4 cells was effected without the addition of the test compound. The results of such calculation of the T/C values (%) are shown in Table 1 in term of rate (%) of presence or occurrence of the HIV antigen-positive cells.

[5] = Acute toxicity in mice, intravenous; settings: mouse, in vivo, read-out: Dosage tolerated without death (acute toxicity)
Experimental: D-β-Lysylmethanediamine used according to this invention is characterised by its low toxicity to mammalian animals. For instance, in the tests of estimating acute toxicity of this compound where mice were intravenously administered with D-β-lysylmethanediamine, the mice having received administration of D-β-lysylmethanediamine could tolerate a dosage of 250 mg/kg of D-β-lysylmethanediamine without involving their death.

[6] = system: Gram-positive bacteria; settings: J. Antibiotics 39(3), 476 (1986); Kokai Sho-62-114947; cited from earlier work
[7] = Extractability with organic solvents; assay type: physicochemical; settings: from liquid portion of the culture
[8] = molecular target: T2, protease of HIV (HIV-1 M:B_HXB2R, UniProt P04585); experiment: Activity inhibitory to protease of HIV; assay type: biochemical; settings: 100 μg/ml
T2 construct: preparation not described

[9] = Hygroscopicity; assay type: physicochemical; settings: colorless powdery substance, Referential Example 1
[10] = colorless powder; reported earlier; cited from earlier work
[11] = Human immunodeficiency virus 1, IIIB, MT4, 96 h

SMILES | Solubility in water [1] | Activity inhibitory to reverse transcriptase of HIV [2] | Cytotoxicity (in words) [3] | activity at 3 µg/mL ([4]; Human immunodeficiency virus 1, IIIB, MT4, 96 h, 3 μg/ml, T/C % vs control without test compound, 4 days, 37° C., read-out: Rate (%) of presence of HIV antigen-positive cells) [%] | activity at 10 µg/mL ([4]; Human immunodeficiency virus 1, IIIB, MT4, 96 h, 10 μg/ml, T/C % vs control without test compound, 4 days, 37° C., read-out: Rate (%) of presence of HIV antigen-positive cells) [%] | activity at 30 µg/mL ([4]; Human immunodeficiency virus 1, IIIB, MT4, 96 h, 30 μg/ml, T/C % vs control without test compound, 4 days, 37° C., read-out: Rate (%) of presence of HIV antigen-positive cells) [%] | activity at 100 µg/mL ([4]; Human immunodeficiency virus 1, IIIB, MT4, 96 h, 100 μg/ml, T/C % vs control without test compound, 4 days, 37° C., read-out: Rate (%) of presence of HIV antigen-positive cells) [%] | EC50 [4, 11] [µg/mL] | Reduction of the number of HIV antigen-positive cells (in words) ([4]; concentrations of no more than 100 μg/ml) | MTD [5] [mg/kg] | Antibacterial activity against Gram-positive bacteria [6] | Extraction with butanol, butyl acetate, chloroform and other organic solvents [7] | Activity inhibitory to protease of HIV [8] | Hygroscopicity [9] | Hygroscopicity [10] | Effect of inhibiting the infection of human T-cells with HIV compared with D-β-lysylmethanediamine (in words) ([4]; relative to D-β-lysylmethanediamine, from ED50)
NCCC[C@@H](N)CC(=O)NCN [D-β-lysylmethanediamine] | well soluble in water | neither any activity inhibitory to reverse transcriptase of HIV | no cytotoxicity | 30 | 15 | 10 | 5 | 0.62 (≈ 3.56 µM) | reduce significantly | ≥ 250 | weak antibacterial activity | substantially connot be extracted | nor any activity inhibitory to protease of HIV | – | – | –
NCCC[C@@H](N)CC(=O)NCN [D-β-lysylmethanediamine hemicarbonate] | – | – | – | – | – | – | – | – | – | – | – | – | – | hygroscopic | hygroscopic | –
OC[C@@H]1CC[C@H](n2cnc3c(O)ncnc32)O1 [DDI, 2',3'-dideoxyinosine, reference compound] | – | – | – | – | – | – | – | 0.46 (≈ 1.95 µM) | – | – | – | – | – | – | – | to the same extent

— patent US5665779A, “Pharmaceutical composition for inhibiting the infection with AIDS virus” (Zaidan, Hojin, Biseibutsu, Kagaku, Kenkyu, Kai, priority 1991, dated 1997)
